The values below come from paper PMC3781034, “A Small-Animal Pharmacokinetic/Pharmacodynamic PET Study of Central Serotonin 1A Receptor Occupancy by a Potential Therapeutic Agent for Overactive Bladder” (PLoS ONE, 2013).

One data set addresses T1, 5-HT1A receptors (Rattus norvegicus, UniProt P19327).
T1 construct: occupancy of 5-HT1A receptors in living Sprague-Dawley rat brains; from tissue; host or cells: living Sprague-Dawley rat brain (medial prefrontal cortex, dorsal raphe nucleus), in vivo PET
T1 sequence (P19327 1-422): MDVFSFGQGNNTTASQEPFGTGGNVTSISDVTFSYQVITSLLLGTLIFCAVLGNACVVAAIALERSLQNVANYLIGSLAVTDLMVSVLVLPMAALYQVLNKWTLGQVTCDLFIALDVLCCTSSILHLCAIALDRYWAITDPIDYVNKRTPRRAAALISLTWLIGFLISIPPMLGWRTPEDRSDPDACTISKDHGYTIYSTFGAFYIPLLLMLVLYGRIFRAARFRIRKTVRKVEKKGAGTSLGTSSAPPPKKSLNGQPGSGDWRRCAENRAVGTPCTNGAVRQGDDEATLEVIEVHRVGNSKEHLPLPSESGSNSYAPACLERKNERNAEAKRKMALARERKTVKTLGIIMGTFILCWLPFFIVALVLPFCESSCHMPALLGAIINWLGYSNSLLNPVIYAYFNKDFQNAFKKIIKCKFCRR
Kind of data set: PET 5-HT1A receptor occupancy, dose-response study ([11C]WAY-100635, Emax model). It counts as in vivo, Sprague-Dawley rat. The procedure:
All PET scans for rats were performed with a small animal-dedicated microPET FOCUS 220 system (Siemens Medical Solutions USA, Knoxville, TN, USA), which yields a 25.8 cm (transaxial) × 7.6 cm (axial) field of view (FOV) and a spatial resolution of 1.3 mm full width at half maximum at the center of FOV [8]. The rats were anesthetized with 1.5-2% isoflurane in air (2 L/min flow rate). Their body temperature was controlled using homeothermic controller and plate with a rectal probe, and their heart rates and arterial oxygen saturations were continuously measured by a pulse oximeter (CANL-425SVA; Med Associates, St. Albans, VT, USA). We also monitored respiration rates of these animals with a custom-made monitoring system (Nagano Electronics, Hitachinaka, Japan). A 20-min transmission scan for attenuation correction was performed using a spiraling ^68Ge-^68Ga point source. Subsequently, list-mode scans were carried out for 90 min. All list-mode data were sorted and Fourier rebinned into two-dimensional sinograms (frames: 4 × 1, 8 × 2, and 14 × 5 min). Images were thereafter reconstructed using two-dimensional filtered back-projection with a 0.5-mm Hanning filter. [^11C]-WAY-100635 was injected via the tail vein as a single bolus at the start of emission scanning. The injected dose of the radiotracer was 85.3 ± 28.6 MBq/rat (mean ± SD).
Anatomical regions of interest (ROIs) were placed on the medial prefrontal cortex (MPFC) and dorsal raphe nucleus (DRN) using PMOD® image software (PMOD Group, Zurich, Switzerland) with reference to the MRI template. Radioligand binding was examined by calculating the binding potential (BP ND; ratio at equilibrium of specifically-bound radioligand to that of nondisplaceable radioligand in tissue) based on a simplified reference tissue model (SRTM) using the cerebellar time-radioactivity curve as reference.
Occupancy of 5-HT1A receptors by E2110 was calculated using the following equation:
RO(%)=BPND,baseline−BPND,drug/BPND,baseline×100 (2)
where BP ND, baseline and BP ND, drug are estimated BP ND at baseline and following drug administration, respectively.
To examine the dose-RO relationship at a single time point, four male SD rats, which had undergone a baseline PET imaging in advance, were scanned with PET at 4 hours after being pretreated with 4 oral doses (0.3, 1, 3, 10 mg/kg) of E2110. In this assay, approximately 250 µL of blood samples were collected from the tail vein upon initiation of the scan for quantification of plasma concentration of E2110. We further examined RO at different time points after the drug administration by conducting PET scans of four male SD rats at 2, 4, 6 or 8 hours after pretreatment with a single oral dose of 1 mg/kg E2110. In addition to this series of PET assays for male rats, pilot PET scans for female rats (n = 3) were carried out at baseline and 4 hours after oral administration of 0.1 mg/kg E2110 to examine whether relationships between plasma concentration of E2110 and RO by this drug in the brain are consistent between two genders. In all experiments, scans for the same individual receiving E2110 were conducted more than 1 week apart.
As described in previous studies on 5-HT1A receptor antagonists the relationship between RO and plasma drug concentration at equilibrium can be described according to the law of mass action by the curvilinear function, based on the assumption that the free brain concentration is equal to free plasma concentration and the free fraction in plasma is not concentration-dependent:
RO(%)=ROmax/Kdapp+CpCp (3)
where ROmax is the maximum occupancy that can be induced by E2110, Kd ^app the apparent equilibrium constant, and Cp the plasma concentration of E2110. This model is analogous to the Emax model:
where Emax (ROmax) is the maximum effect (maximum RO) and EC50 (= Kd) is the E2110 plasma concentration required to produce 50% of Emax. […]

The nature of data set [1]: Protein binding of E2110 in rat plasma (equilibrium dialysis). It counts as in vitro ADME. The protocol: The in vitro unbound fraction of […] in male SD rat plasma was quantified by equilibrium dialysis. One mL of the […] spiked sample (100, 1000 and 10000 ng/mL) and phosphate buffered saline (PBS) were applied to one and the other chambers of a dialysis cell, respectively. The cartridge was incubated in a water bath for 24 hr at 37°C. After incubation, aliquots were sampled from both chambers and submitted to determination of the concentration of […] in each matrix by liquid chromatography-tandem mass spectrometry. Unbound fractions for each compound were calculated as the ratio of […] concentration from the PBS side to that from the plasma side of the dialysis apparatus. Concentrations of […] were determined in plasma or PBS by liquid chromatography - tandem mass spectrometry. Samples (5 μL) were injected into an L-column ODS (35 × 2.1 mm; 5 μM, Chemical Evaluation and Research Institute, Tokyo, Japan) with a flow rate of 0.6 mL/min. We used 0.1% formic acid in water and acetonitrile as mobile phase A and B, respectively. […] […] was monitored using mass transitions of 490.4/459.2. Tamsulosin was used as an internal standard, and was monitored using a mass transition of 409.3/200.0. The lower limit of quantification of […] in plasma was 0.5 ng/mL.
On the technique in general: In equilibrium dialysis free small molecules cross a membrane that holds back macromolecules.

Like-named read-outs stand apart in the source and are kept apart here.

Take `CNC(=O)c1ccc2ccn(C3CCN(CCc4c(OC)ccc5c4OC(C)(C)CC5=O)CC3)c2c1.O=C(O)/C=C/C(=O)O` [E2110, 1-{1-[2-(7-Methoxy-2,2-dimethyl-4-oxochroman-8-yl)ethyl]piperidine-4-yl}-N-methyl-1H-indole-6-carboxamide fumarate]: the “5-HT1A RO at high doses” value on 5-HT1A receptors (3 and 10 mg/kg oral, 4 h, both ROIs (MPFC, DRN)) was “full occupancy”. In addition, the EC50 is 5400 pM at 5-HT1A receptors (DRN, dose-response study, 4 h after oral 0.3-10 mg/kg, male SD rats, Emax model, read-out: EC50 (plasma concentration required for 50% 5-HT1A RO) (converted)); 4360 pM on 5-HT1A receptors (DRN, dose-response study, Emax model, read-out: EC50 (plasma concentration required for 50% 5-HT1A RO) (converted)); 320 pM on 5-HT1A receptors (DRN, dose-response study, EC50 x unbound fraction in plasma, read-out: free concentration-based EC50 for 5-HT1A RO (converted)); 264 pM at 5-HT1A receptors (DRN, dose-response study, read-out: free concentration-based EC50 for 5-HT1A RO (converted)); 32 pM on 5-HT1A receptors (DRN, free CNS concentration assumed one-tenth of free plasma, read-out: in vivo EC50 corrected for the difference in free drug concentrations between plasma and CNS); 7510 pM at 5-HT1A receptors (MPFC, dose-response study, 4 h after oral 0.3-10 mg/kg, male SD rats, Emax model, read-out: EC50 (plasma concentration required for 50% 5-HT1A RO) (converted)). Further, the EC50 is 6080 pM at 5-HT1A receptors (MPFC, dose-response study, Emax model, read-out: EC50 (plasma concentration required for 50% 5-HT1A RO) (converted)); 450 pM on 5-HT1A receptors (MPFC, dose-response study, EC50 x unbound fraction in plasma, read-out: free concentration-based EC50 for 5-HT1A RO (converted)); 363 pM on 5-HT1A receptors (MPFC, dose-response study, read-out: free concentration-based EC50 for 5-HT1A RO (converted)); 45 pM at 5-HT1A receptors (MPFC, free CNS concentration assumed one-tenth of free plasma, read-out: in vivo EC50 corrected for the difference in free drug concentrations between plasma and CNS). Moreover, the “free concentration-based EC50 relative to in vitro Ki” value at 5-HT1A receptors (MPFC and DRN, dose-response study) is listed as “approximately 10 fold”. Further, on 5-HT1A receptors (single oral doses of 0.3, 1, 3, and 10 mg/kg, each region), the “5-HT1A RO, dose dependence” value was “dose-dependently induced 5-HT1A RO”. Further, in data set [1] (at 0.1, 1 µM), the “concentration dependence of binding to plasma proteins” value is “not dependent on its concentration”. Besides, in data set [1] (male SD rat plasma, equilibrium dialysis 24 hr 37°C), the “average percentage of protein-unbound E2110 in plasma” value is 6%.
